Results on one compound are retold here after patent publication EP0297523A2, “Process for the preparation of elaiophyline and the use thereof” (HOECHST AKTIENGESELLSCHAFT, priority 1987, dated 1989).

One experiment relates to Haemonchus contortus. Kind of experiment: Anthelmintic effect in artificially infected lambs (abomasal nematodes), coproscopy and necropsy. As to conditions: up to 14 days after application. The format is in vivo. Here is the method: (§1) Die anthelminthische Wirkung vom Elaiophylin wurde an Lämmern mit 30 - 40 kg Körpergewicht untersucht. Dazu wurden die Lämmer artifiziell mit Infektionsstadien von Labmagen- (Haemonchus contortus) und Dünndarm-(Trichostrongylus colubriformis) Nematoden infiziert. Nach Abschluß der Entwicklungszeit (Präpatenzperiode) der Nematoden erfolgte die Applikation von Elaiophylin in Dosierungen von 2,5, 5,0 und 10,0 mg/kg (p.o.) bzw. 2,5 mg/kg (subcutan).
(§2) Durch koproskopische Untersuchungen vor und bis zu 14 Tagen nach der Applikation des Elaiophylins und anschließende Sektion mit helminthologischer Aufarbeitung wurde die prozentuale Reduktion der Schaf-Nematoden ermittelt (s. Tab. 1). Tabelle 1

Experiment [1] concerns Trichostrongylus colubriformis. Kind of experiment: Anthelmintic effect in artificially infected lambs (small intestine nematodes), coproscopy and necropsy. Format: in vivo. As to conditions: up to 14 days after application. Here is the method:
as §1, §2

With `CC[C@@H]1[C@@H](C)O[C@@](O)([C@@H](C)[C@H](O)[C@H](C)[C@H]2OC(=O)/C=C/C=C/[C@H](C)[C@@H]([C@@H](C)[C@@H](O)[C@H](C)[C@@]3(O)C[C@@H](O[C@H]4C[C@H](O)[C@H](O)[C@H](C)O4)[C@H](CC)[C@@H](C)O3)OC(=O)/C=C/C=C/[C@@H]2C)C[C@H]1O[C@H]1C[C@H](O)[C@H](O)[C@H](C)O1` [Elaiophylin], the “proz. Reduktion der Nematoden H. contortus” value was 44,6% in the experiment on Haemonchus contortus (lambs 30 - 40 kg, 2,5 mg p.o.); 46,5% in the experiment with Haemonchus contortus (lambs 30 - 40 kg, 2,5 mg s.c.); 89,3% in the experiment with Haemonchus contortus (lambs 30 - 40 kg, 5,0 mg p.o.); 85,0% in the experiment on Haemonchus contortus (lambs 30 - 40 kg, 10,0 mg p.o.). The “proz. Reduktion der Nematoden T. colubriformis” value is given as 28,4% in experiment [1] (lambs 30 - 40 kg, 2,5 mg p.o.); 35,1% in experiment [1] (lambs 30 - 40 kg, 2,5 mg s.c.); 73,8% in experiment [1] (lambs 30 - 40 kg, 5,0 mg p.o.); 73,8% in experiment [1] (lambs 30 - 40 kg, 10,0 mg p.o.).
